In a melting point compilation (Tetko et al.; mined from patent text by program, amines drawn as free bases though some values may be those of a salt) one finds melting point data, which are given here for 88 compounds.

The structures appear in SMILES notation.

In turn, `CCCCn1c(=O)n(CC=C(C)C)c(=O)c2c1ncn2S(=O)(=O)c1ccc(C)cc1` displayed a melting point of 130 to 135 °C. For `C[C@@H](Sc1ccc(O)cc1)C(=O)O` the value was 138 to 139 °C. With `Cc1noc(NS(=O)(=O)c2ccc(NCC(=O)O)cc2-c2ccc(CC(C)C)cc2)c1C`, the melting point is 73 to 78 °C. For `CN(C)CCc1cn(Cc2ccccc2)c2ccc(Br)cc12` the value was 49 to 50 °C.

On to `COC(=O)Cc1ccc(OCCNC(=O)C2Cc3ccccc3N2S(=O)(=O)c2ccc(-c3cc(C)ccc3F)cc2)cc1` (stereo not drawn), for which the melting point was in the range of 55 to 58 °C.

`COC(=O)C1=C(C(OC)OC)NC(C)=C(C(=O)OCC(C)(C)C)C1c1ccccc1C#N` (stereo not drawn): the melting point fell in the range of 130 to 131 °C.

For the compound `CCOC(=O)c1ccc(Nc2nnc(-c3ccc(Oc4ccccc4)cc3)s2)cc1`, the melting point fell in the range of 206 to 207 °C. For `CSc1nnc(-c2ccc3ncn(-c4ccc(OC(F)F)cc4)c3c2)o1` the value was 202 to 203 °C; for `COc1ccc(-c2cnc(-c3ccc(F)cc3)nc2-c2ccc(OC)cc2)cc1`, 129 to 130 °C; for `CCC(=O)Oc1cccc2c1C(=O)c1c(OC(=O)CC)cccc1C2C(=O)CC`, 125 °C. To `CS(=O)(=O)c1ccc(C2=C(c3ccccc3)C(=O)C3(CCCCC3)O2)cc1` belongs 126 to 127 °C; to `CCCCCCOc1ccc(C=[N+]([O-])CCC)cc1`, 45 °C; to `Cc1cccc(C)c1C(N)=NO`, 77 to 79 °C. For `Nc1ncccc1C(=O)NCC1CCN(CC2COc3ccc(F)cc3O2)CC1` (stereo not drawn) the value was 141 to 143 °C. In turn, `NC[C@@H]1C[C@@H](SC(c2ccccc2)(c2ccccc2)c2ccccc2)CN1S(=O)(=O)c1ccc2ccccc2c1` returned a melting point of 88 to 89 °C. In the case of `Clc1ccc(C=Cc2nc(CNc3ccc(CCCCn4ccnn4)cc3)co2)cc1`, the melting point fell in the range of 120 to 122 °C. The compound `Cc1cc(C)n(C(=O)CCNS(=O)(=O)c2ccccc2)n1` had a melting point of 113 to 115 °C. For `N#Cc1ccccc1CCC(=O)c1c(O)c2cccnc2n(-c2ccccc2)c1=O` the value was 226 to 227 °C. For `CCOC(=O)N1CCN(c2nc(N(C(C)=O)C3CC3)ccc2N)CC1` the value was 149 to 150 °C. To `Cc1nc(-c2cnccn2)no1` belongs 100 to 104 °C; to `COc1ccc(NN=C(Sc2ccc(C#N)cc2)C(C)=O)cc1`, 182 to 184 °C. Compound `CCCOC(=O)c1cn(CC)c2nc(N3CCNCC3)c(F)cc2c1=O` came in with a melting point of 133 to 135 °C. To `CCc1cnc(N2CCC(c3nc4cc(-c5ccc(S(C)(=O)=O)cc5F)ccc4[nH]3)CC2)nc1` belongs 186 to 190 °C; to `COCC(C)Oc1cc(Oc2ccc(S(C)(=O)=O)cc2)cc2cc(C3=NCC(CC(N)=O)S3)[nH]c12` (stereo not drawn), 107 to 112 °C.

`CCc1nc2c(N)nc3cc(OCc4cccc(Cl)n4)ccc3c2s1` returned a melting point of 229 to 230 °C. To `Cn1cc(Cl)c(-n2ccnc2S(N)(=O)=O)n1` belongs 208 to 210 °C.

On to `C#CC(O)c1cccc2ccncc12` (stereo not drawn), for which the melting point fell in the range of 138 to 139 °C.

`CC(C)CC(=O)c1c(-c2ccc3cc(O)cc(Br)c3c2)oc2ccccc12` returned a melting point of 160 to 161 °C. To `CC(C)CCNC(=NC#N)Nc1cccnc1` belongs 136 °C.

As for `C=C=CC12CCC(=O)C=C1C=CC1C3CCC(=O)C3(C)CCC12` (stereo not drawn), the melting point is 152 to 154 °C.

`N#CC(c1ccccc1)(c1ccccc1)[C@H]1CCCN(CCc2ccc(CO)cc2)C1` registered a melting point of 110 to 114 °C.

Take `Cc1c(C(=O)CCl)c(C)n(C)c1C(=O)c1ccc(Cl)cc1Cl`: the melting point fell in the range of 100 to 102 °C. In the case of `CC(=O)OCC1CC(OC(C)=O)C(n2cc(C(Cl)=CI)c(=O)[nH]c2=O)O1` (stereo not drawn), the melting point fell in the range of 87 to 89 °C. For `O=C(NC(CC1CCCC1)C(=O)NC1CCCN(C(=O)c2ccccc2)CC1=O)c1ccco1` (stereo not drawn) the value was 97 to 100 °C; for `COc1ccc(/C(=C\C=C\C(=O)O)c2cccnc2)cc1`, 235 to 238 °C; for `Cc1c(C)c2c(c(C)c1NC(=O)OC(C)(C)C)C(=O)C(C)(C)O2`, 105 to 106 °C. In turn, `COC(=O)c1ccc(OCCNC(=O)C2Cc3ccccc3N2S(=O)(=O)c2ccc(-c3ccc(F)cc3F)cc2)cc1F` (stereo not drawn) gave a melting point of 65 to 68 °C. `Oc1cc(Cl)c(OCc2ccccc2Cl)c(Cl)c1` yielded a melting point of 108 °C.

For `COc1cc(C=C2NC(=O)NC2=O)cc(OC)c1OC`, the melting point fell in the range of 266 to 268 °C.

On to `CCNC(=O)n1nc(Oc2ccc([N+](=O)[O-])c(C)c2)cc1C`, for which the melting point fell in the range of 67 to 69 °C. To `Cc1cc(C)cc(Oc2ccc(Oc3cc(C)cc(C)c3)cc2)c1` belongs 103 °C; to `CC(C)N=C(N=c1ccccn1CCc1ccccc1Br)NC(C)C`, 125 to 128 °C. For `O=C1NCC(COc2cccc3c2SCCC3)O1` (stereo not drawn) the value was 152 to 153 °C. `Cc1ccc(COc2ccc(C=NCc3ccco3)cc2)cc1` had a melting point of 71 °C. `CC(C)CC(NC(=O)Cc1cccc2ccccc12)C(=O)NC(Cc1ccccc1)C(=O)CSCc1ccco1` (stereo not drawn) gave a melting point of 143 to 146 °C. For `Clc1ccc(-c2cc(Cl)nc(Cl)n2)cc1` the value was 130 to 132 °C; for `NC(=O)c1cccc(-c2cccc3cc(Cc4cccc(C(F)(F)F)c4)sc23)c1`, 153 to 154 °C; for `Nc1ccc(CCc2nnco2)cc1`, 73 to 74 °C.

With `CC(=O)c1cc2c(cc1NC(=O)c1coc3ccccc13)OCO2`, the melting point was in the range of 144 to 145 °C. As for `COc1ccc(Br)c(C(=O)N2CCN(S(=O)(=O)c3ccc(F)cc3F)CC2)c1`, the melting point was 194 °C. To `O=C(NCNC(=O)c1ccccc1C(=O)C1CCCCC1)OCc1ccccc1` belongs 152 to 155 °C. For `O=S(=O)(CI)c1ncc(Cl)cn1` the value was 152 °C; for `CCc1c([N+](=O)[O-])cc(C2CCNCC2)cc1[N+](=O)[O-]`, 85 to 86 °C; for `COc1ccc(-c2c3c(cc4ccc5c(c24)OCO5)C(=O)NCC3)cc1`, 245 to 247 °C. For `CC1(C)CCC(=O)Nc2cc(OCCCCCN3CCN(c4cccc(Cl)c4Cl)CC3)ccc21` the value was 128 to 130 °C. `C=C(C)C(=O)OCCN(CCOC(=O)C(=C)C)c1ccc(N=Nc2ccc([N+](=O)[O-])cc2)cc1` displayed a melting point of 88 to 90 °C. To `COC(=O)OCCNC(=O)C(F)(F)Cc1c[nH]c([N+](=O)[O-])n1` belongs 50.5 to 52.5 °C. For `CC(C)OC(=O)c1ccc2c(c1)C(=O)CC(c1ccccc1)=N2` the value was greater than 300 °C. To `O=C(CC1CN2C(=O)CC2O1)OC(c1ccccc1)c1ccccc1` (stereo not drawn) belongs 64.1 to 64.9 °C; to `Cc1ccc(S(=O)(=O)N2CCN(C(=O)c3cc4cc(O)ccc4cc3O)CC2)cc1`, 135 to 137 °C. `Cc1nc(-c2ccncn2)cc(=O)[nH]1` yielded a melting point of 320 to 322 °C.

Turning to `N#CC1Cc2cc3cc[nH]c3cc21` (stereo not drawn), the melting point was 126 to 128 °C. To `O=C(O)c1ccc(OCCCCCCC2CC2)c(F)c1F` belongs 100 to 108 °C. For `O=C(O)c1cccc(-c2ccc3[nH]cc(-c4ccc(Cl)cc4Cl)c3c2)c1` the value was 303 to 304 °C.

In the case of `O=[N+]([O-])c1ccc2c(c1)N(C1CC1)CNS2(=O)=O`, the melting point fell in the range of 166 to 169 °C.

On to `Cc1cc(C(=O)CC(O)(c2cc(Cl)cc(Cl)c2)C(F)(F)F)ccc1C(=O)O` (stereo not drawn), for which the melting point was 114 to 115 °C. For `Fc1ccc(CSc2nnc(-c3ccc4c(c3)CCO4)o2)cc1F` the value was 138 to 139 °C; for `O=Cc1c2ccccc2c(Cl)c2c(Cl)cccc12`, 167 to 170 °C.

For the compound `CC#CCOc1ccc(S(=O)(=O)C(C(=O)NO)c2ccc(Br)cc2)cc1` (stereo not drawn), the melting point was determined as 187 °C. To `CC1(C)CNC(=O)c2c1ccc1nc(Nc3c(Cl)cccc3Cl)[nH]c21` belongs 287 to 290 °C. As for `Nc1ccc2c(c1)CCC1CC(=O)NN=C21` (stereo not drawn), the melting point was 290 to 291 °C. In turn, `CCCCCCCCCCCCc1ccc(NC)c([N+](=O)[O-])c1` displayed a melting point of 54 °C. For `CC(C)(C)c1ccc(-c2cc(=O)cc(N3CCOCC3)s2)cc1` the value was 172 to 173 °C; for `COc1ccccc1-c1cc(N2CCN(Cc3ccc(C)cc3)CC2)n2ccc(=O)ccc12`, 186 °C.

With `CC(=O)c1ccc(NC(=O)c2cc(Cl)cc(Cl)c2)cc1`, the melting point was 199 to 200 °C.

In turn, `O=C(OCc1cc2c3ccccc3[nH]c(=O)n2n1)c1ccccc1` returned a melting point of 262 to 265 °C. For `Cc1c(-c2ccccc2)ncc2c(N3CCOC(C)C3)nnc(N3CCOC(C)C3)c12` (stereo not drawn) the value was 96 to 99 °C; for `COc1cccc(C(=O)N[C@H]2C[C@@H](c3cc(NC(=O)Cc4cccc5ccccc45)n[nH]3)C2)c1`, 125 °C; for `Cn1ncnc1COc1nn2c(-c3ccccc3F)nnc2cc1C12CCC(C1)C2`, 198 to 200 °C.

Take `COC(=O)C1CSc2sccc2C1=O` (stereo not drawn): the melting point lay in the range of 94 to 97 °C.

`CC(=O)c1ccc(-c2cn3ccccc3n2)cc1` displayed a melting point of 209 to 210 °C. Consider `CCOCOc1cc(C)ccc1-c1cc(-c2cccc([N+](=O)[O-])c2)c(C#N)c(N)n1`, for which the melting point fell in the range of 148 to 149 °C. To `COc1ccc(N2CCN(C)[C@@H]3Cc4ccccc4[C@H]32)c(CO)c1` (relative stereo) belongs 179 to 183 °C; to `CC1Cc2ccccc2CN(CO)C1=O` (stereo not drawn), 114 to 116 °C. For `NC(C(=O)N1CCC(F)C1)C1CCCCC1` (mixture of isomers) the value was greater than 250 °C; for `Cn1c(=O)ccc2cnc(NCc3ccccc3)nc21`, 160 to 162 °C.

For the compound `CNC(=O)CC1CCN(Cc2cnc3c(C)c(NC(=O)c4ccc(-c5ccc(F)cc5)cc4)ccc3c2)CC1`, the melting point lay within 229 to 231 °C.

In the case of `CC(C)(C)NCC(O)COc1ccc2c(=O)cc(-c3ccc(O)c(O)c3)oc2c1` (stereo not drawn), the melting point came to 165 °C.
